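Grown in 96-well plates, cells were treated for 48 hours with each compound at five concentrations. Insufficient inhibition: endpoint recorded as highest concentration tested. GI50 = concentration required for 50% inhibition of growth.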 Active and inactive are the calls of the source. Cut-off read from the data, not from the text of the source: active = GI50 up to about 1.1 µM and inactive = higher.
How the values were obtained:
Assay in all cases: NCI-60 cell line screen, 48 h
[1] = tested on: A498
[2] = tested on: COLO 205
[3] = tested on: RXF 393
[4] = tested on: MDA-MB-231
[5] = tested on: NCI-H226
[6] = tested on: HOP-62
[7] = tested on: UO-31
[8] = tested on: RPMI-8226
[9] = tested on: OVCAR-3
[10] = tested on: HL-60
[11] = tested on: T47D
[12] = tested on: SF-539
[13] = tested on: SF-295
[14] = tested on: BT-549
[15] = tested on: SK-MEL-2
[16] = tested on: SNB-19
[17] = tested on: NCI-H522
[18] = tested on: EKVX
[19] = tested on: SNB-75
[20] = tested on: M14
[21] = tested on: SK-OV-3
[22] = tested on: SF-268
[23] = tested on: NCI-H23
[24] = tested on: NCI/ADR-RES
[25] = tested on: NCI-H460
[26] = tested on: SK-MEL-5
[27] = tested on: HT-29
[28] = tested on: HCT-116
[29] = tested on: PC-3
[30] = tested on: A549
[31] = tested on: K562
[32] = tested on: ACHN
[33] = tested on: KM12
[34] = tested on: UACC-62
[35] = tested on: TK-10
[36] = tested on: CAKI-1
[37] = tested on: HCT-15
[38] = tested on: U-251
[39] = tested on: Hs-578T
[40] = tested on: 786-0
[41] = tested on: UACC-257
[42] = tested on: Malme-3M
[43] = tested on: LOX IMVI
[44] = tested on: CCRF-CEM
[45] = tested on: HCC 2998
[46] = tested on: SW-620
[47] = tested on: MDA-MB-435
[48] = tested on: SN12C
[49] = tested on: IGROV-1
[50] = tested on: OVCAR-4
[51] = tested on: OVCAR-5
[52] = tested on: DU-145
[53] = tested on: MDA-N
[54] = tested on: SK-MEL-28
[55] = tested on: MOLT-4
[56] = tested on: OVCAR-8
[57] = tested on: MCF7
[58] = tested on: HOP-92

## Nc1nc2cc(CNc3ccc(C(=O)NC(CCC(=O)O)C(=O)O)cc3)ccc2nc1-c1ccccc1 (stereo not drawn)
[1]
  GI50: > 10 µM (inactive)
[2]
  GI50: > 10 µM (inactive)
[3]
  GI50: > 10 µM (inactive)
[4]
  GI50: > 10 µM (inactive)
[5]
  GI50: > 10 µM (inactive)
[6]
  GI50: > 10 µM (inactive)
[7]
  GI50: > 10 µM (inactive)
[8]
  GI50: > 10 µM (inactive)
[9]
  GI50: > 10 µM (inactive)
[10]
  GI50: > 10 µM (inactive)
[11]
  GI50: > 10 µM (inactive)
[12]
  GI50: > 10 µM (inactive)
[13]
  GI50: > 10 µM (inactive)
[14]
  GI50: > 10 µM (inactive)
[15]
  GI50: > 10 µM (inactive)
[16]
  GI50: > 10 µM (inactive)
[17]
  GI50: > 10 µM (inactive)
[18]
  GI50: > 10 µM (inactive)
[19]
  GI50: > 10 µM (inactive)
[20]
  GI50: > 10 µM (inactive)
[21]
  GI50: > 10 µM (inactive)
[22]
  GI50: > 10 µM (inactive)
[23]
  GI50: > 10 µM (inactive)
[24]
  GI50: > 10 µM (inactive)
[25]
  GI50: > 10 µM (inactive)
[26]
  GI50: > 10 µM (inactive)
[27]
  GI50: > 10 µM (inactive)
[28]
  GI50: > 10 µM (inactive)
[29]
  GI50: > 10 µM (inactive)
[30]
  GI50: > 10 µM (inactive)
[31]
  GI50: > 10 µM (inactive)
[32]
  GI50: > 10 µM (inactive)
[33]
  GI50: > 10 µM (inactive)
[34]
  GI50: > 10 µM (inactive)
[35]
  GI50: > 10 µM (inactive)
[36]
  GI50: > 10 µM (inactive)
[37]
  GI50: > 10 µM
[38]
  GI50: > 10 µM (inactive)
[39]
  GI50: > 10 µM (inactive)
[40]
  GI50: > 10 µM (inactive)
[41]
  GI50: > 10 µM (inactive)
[42]
  GI50: > 10 µM (inactive)
[43]
  GI50: > 10 µM (inactive)
[44]
  GI50: > 10 µM (inactive)
[45]
  GI50: > 10 µM (inactive)
[46]
  GI50: > 10 µM (inactive)
[47]
  GI50: > 10 µM (inactive)
[48]
  GI50: > 10 µM (inactive)
[49]
  GI50: > 10 µM (inactive)
[50]
  GI50: > 10 µM (inactive)
[51]
  GI50: > 10 µM (inactive)
[52]
  GI50: > 10 µM (inactive)
[53]
  GI50: > 10 µM (inactive)
[54]
  GI50: > 10 µM (inactive)
[55]
  GI50: > 10 µM (inactive)
[56]
  GI50: > 10 µM (inactive)
[57]
  GI50: > 10 µM (inactive)

## CCOC(=O)C1=CC(C)(C(=O)OCC)Nc2c(nc(SC)[nH]c2=O)N1 (stereo not drawn)
[1]
  GI50: > 10 µM (inactive)
[2]
  GI50: > 10 µM (inactive)
[3]
  GI50: > 10 µM (inactive)
[4]
  GI50: > 10 µM (inactive)
[5]
  GI50: > 10 µM (inactive)
[6]
  GI50: > 10 µM (inactive)
[7]
  GI50: > 10 µM (inactive)
[8]
  GI50: > 10 µM (inactive)
[9]
  GI50: > 10 µM (inactive)
[11]
  GI50: > 10 µM (inactive)
[12]
  GI50: > 10 µM (inactive)
[13]
  GI50: > 10 µM (inactive)
[14]
  GI50: > 10 µM (inactive)
[58]
  GI50: > 10 µM (inactive)
[15]
  GI50: > 10 µM (inactive)
[16]
  GI50: > 10 µM (inactive)
[17]
  GI50: > 10 µM (inactive)
[18]
  GI50: > 10 µM (inactive)
[19]
  GI50: > 10 µM (inactive)
[20]
  GI50: > 10 µM (inactive)
[21]
  GI50: > 10 µM (inactive)
[22]
  GI50: > 10 µM (inactive)
[23]
  GI50: > 10 µM (inactive)
[24]
  GI50: > 10 µM (inactive)
[25]
  GI50: > 10 µM (inactive)
[26]
  GI50: > 10 µM (inactive)
[27]
  GI50: > 10 µM (inactive)
[28]
  GI50: > 10 µM (inactive)
[29]
  GI50: > 10 µM (inactive)
[30]
  GI50: > 10 µM (inactive)
[31]
  GI50: > 10 µM (inactive)
[32]
  GI50: > 10 µM (inactive)
[33]
  GI50: > 10 µM (inactive)
[35]
  GI50: > 10 µM (inactive)
[36]
  GI50: > 10 µM (inactive)
[37]
  GI50: > 10 µM
[38]
  GI50: > 10 µM (inactive)
[39]
  GI50: > 10 µM (inactive)
[40]
  GI50: > 10 µM (inactive)
[41]
  GI50: > 10 µM (inactive)
[42]
  GI50: > 10 µM (inactive)
[43]
  GI50: > 10 µM (inactive)
[44]
  GI50: > 10 µM (inactive)
[45]
  GI50: > 10 µM (inactive)
[46]
  GI50: > 10 µM (inactive)
[47]
  GI50: > 10 µM (inactive)
[48]
  GI50: > 10 µM (inactive)
[49]
  GI50: > 10 µM (inactive)
[50]
  GI50: > 10 µM (inactive)
[51]
  GI50: > 10 µM (inactive)
[52]
  GI50: > 10 µM (inactive)
[53]
  GI50: > 10 µM (inactive)
[54]
  GI50: > 10 µM (inactive)
[55]
  GI50: > 10 µM (inactive)
[56]
  GI50: > 10 µM (inactive)
[57]
  GI50: > 10 µM (inactive)

Source: ChEMBL document CHEMBL1201862, “PubChem BioAssay data set” (2004)
